Legend:
Cbl-b [1] = molecular target: T1, Cbl-b (Homo sapiens, UniProt Q13191); experiment: Cbl-b inhibition assay (Cbl-b activity assay, FRET, Biological Example 1; 100 mM NaCl, 60 nM Src kinase); format: biochemical; details: upper bound stated in text lists; read-out: IC50 values in the Cbl-b inhibition assay of Biological Example 1
How it was run: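 Here, the E2 UbcH5B, irreversibly linked to Bodipy-fluorescein ubiquitin, binds Cbl-b once Src kinase phosphorylates it; Cbl-b carries an N-terminal biotinylated Avi-tag captured by streptavidin-terbium. An absent FRET signal indicates inhibition.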

T-cell [2] = experiment: CD25 cell surface staining on T-cells co-stimulated with anti-CD3 and anti-CD28 antibody (Biological Example 2); format: cell-based, human; details: Homo sapiens, T-cell, fold change over baseline (anti-CD3/anti-CD28 stimulated T-cells without inhibitor), read-out: CD25 staining Anti-CD3/Anti-CD28 stimulation; for fold induction at 0.3 µM: 0.3 μM Cbl-b inhibitor; for fold induction at 1 µM: 1 μM Cbl-b inhibitor
How it was run: (§1)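 T-cells were stimulated with anti-CD3 antibody alone or with anti-CD28 antibody, in the presence or absence of Cbl-b inhibitor. IL-2 secretion or CD25 surface staining was measured, and values expressed as fold over the uninhibited baseline […].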

T-cell [3] = experiment: IL-2 secretion from T-cells co-stimulated with anti-CD3 and anti-CD28 antibody (Biological Example 2); format: cell-based, human; details: Homo sapiens, T-cell, fold change over baseline (anti-CD3/anti-CD28 stimulated T-cells without inhibitor), read-out: IL-2 secretion Anti-CD3/Anti-CD28 stimulation; for fold induction at 0.3 µM: 0.3 μM Cbl-b inhibitor; for fold induction at 1 µM: 1 μM Cbl-b inhibitor
How it was run: as §1

T-cell [4] = experiment: CD25 cell surface staining on T-cells stimulated with anti-CD3 antibody alone (Biological Example 2); format: cell-based, human; details: Homo sapiens, T-cell; 1 μM Cbl-b inhibitor; fold change over baseline (anti-CD3/anti-CD28 stimulated T-cells without inhibitor); read-out: CD25 staining Anti-CD3 stimulation
T-cell [5] = experiment: IL-2 secretion from T-cells stimulated with anti-CD3 antibody alone (Biological Example 2); format: cell-based, human; details: Homo sapiens, T-cell; 1 μM Cbl-b inhibitor; fold change over baseline (anti-CD3/anti-CD28 stimulated T-cells without inhibitor); read-out: IL-2 secretion Anti-CD3 stimulation
Cbl-b [6] = molecular target: T1, Cbl-b; experiment: Cbl-b activity assay (Cbl-b inhibition assay), TR-FRET of Cbl-b interaction with UbcH5B-Ub; format: biochemical; details: assay buffer with 100 mM NaCl, 60 nM Src kinase; read-out: Cbl-b activity IC50
How it was run: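 UbcH5B (C85K) conjugated to N-terminally Bodipy-Fluorescein-labeled ubiquitin served as the fluorescent partner. After compound preincubation, Src kinase (60 nM) with 1 mM ATP and 5 mM MgCl2 (final) was added for 1.5 h, followed by a further 1 h incubation. Some values were obtained with 50 mM NaCl and 30 nM Src.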

T1 sequence (Q13191 36-427): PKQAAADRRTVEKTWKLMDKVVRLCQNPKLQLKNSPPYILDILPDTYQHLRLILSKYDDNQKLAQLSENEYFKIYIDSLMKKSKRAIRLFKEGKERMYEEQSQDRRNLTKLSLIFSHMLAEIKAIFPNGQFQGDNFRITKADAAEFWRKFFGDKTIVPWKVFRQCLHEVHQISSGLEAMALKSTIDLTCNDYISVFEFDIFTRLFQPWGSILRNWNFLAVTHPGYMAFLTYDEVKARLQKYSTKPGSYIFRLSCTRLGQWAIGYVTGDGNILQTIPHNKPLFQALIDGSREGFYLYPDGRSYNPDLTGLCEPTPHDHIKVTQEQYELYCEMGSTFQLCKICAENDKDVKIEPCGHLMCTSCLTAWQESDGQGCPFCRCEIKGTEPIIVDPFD

Compound	IC50 (Cbl-b [1])	fold induction at 0.3 µM (T-cell [2])	fold induction at 1 µM (T-cell [2])	fold induction at 0.3 µM (T-cell [3])	fold induction at 1 µM (T-cell [3])	fold induction at 1 µM (T-cell [4])	fold induction at 1 µM (T-cell [5])	IC50 (Cbl-b [6])
Cn1cnnc1CC1(c2cccc(N3Cc4c(cc(C(N5CCCC5)C(F)(F)F)cc4C(F)(F)F)C3=O)c2)COC1 (stereo not drawn) [Example 581, 2-(3-(3-((4-Methyl-4H-1,2,4-triazol-3-yl)methyl)oxetan-3-yl)phenyl)-6-(2,2,2-trifluoro-1-(pyrrolidin-1-yl)ethyl)-4-(trifluoromethyl)isoindolin-1-one]	≤ 100 nM	1.01 to 1.3	1.31 to 1.5	1.01 to 2.5	2.51 to 5	0.801 to 1	0.051 to 0.1	< 100 nM
Cn1cnnc1CC1(c2cccc(N3Cc4c(cc(N5CCNC6(CC6)C5)cc4C(F)(F)F)C3=O)c2)COC1 [Example 582, 2-(3-(3-((4-Methyl-4H-1,2,4-triazol-3-yl)methyl)oxetan-3-yl)phenyl)-6-(4,7-diazaspiro[2.5]octan-7-yl)-4-(trifluoromethyl)isoindolin-1-one]	≤ 100 nM	1.31 to 1.5	1.31 to 1.5	> 7.5	> 7.5	> 1	0.101 to 0.15	< 100 nM
CN1CCN(c2cc3c(c(C(F)(F)F)c2)CN(c2cccc(C4(Cc5nncn5C)COC4)c2)C3=O)CC12CC2 [Example 583, 2-(3-(3-((4-Methyl-4H-1,2,4-triazol-3-yl)methyl)oxetan-3-yl)phenyl)-6-(4-methyl-4,7-diazaspiro[2.5]octan-7-yl)-4-(trifluoromethyl)isoindolin-1-one]	≤ 100 nM	1.31 to 1.5	1.51 to 1.75	2.51 to 5	5 to 7.5	> 1	0.151 to 0.2	< 100 nM
CC(c1cc2c(c(C3CC3)n1)CN(c1cccc(C3(Cc4nncn4C)COC3)c1)C2=O)N1CCCC1 (stereo not drawn) [Example 584, 4-Cyclopropyl-2-(3-(3-((4-methyl-4H-1,2,4-triazol-3-yl)methyl)oxetan-3-yl)phenyl)-6-(l-(pyrrolidin-1-yl)ethyl)-2,3-dihydro-1H-pyrrolo[3,4-c]pyridin-1-one]	≤ 100 nM	1.01 to 1.3	1.01 to 1.3	1.01 to 2.5	2.51 to 5	0.601 to 0.8	< 0.05	< 100 nM
CC(c1cc2c(c(C3CC3)n1)CN(c1cccc(C3(Cc4nncn4C)COC3)c1)C2=O)N1CCC2(CC2)C1 (stereo not drawn) [Example 585, 6-(1-(5-Azaspiro[2.4]heptan-5-yl)ethyl)-4-cyclopropyl-2-(3-(3-((4-methyl-4H-1,2,4-triazol-3-yl)methyl)oxetan-3-yl)phenyl)-2,3-dihydro-1H-pyrrolo[3,4-c]pyridin-1-one]	≤ 100 nM	1.01 to 1.3	1.01 to 1.3	2.51 to 5	5 to 7.5	0.801 to 1	0.051 to 0.1	< 100 nM
CC(c1cc2c(c(C3CC3)n1)CN(c1cccc(C3(Cc4nncn4C)COC3)c1)C2=O)N1CC2(CC2)C1 (stereo not drawn) [Example 586, 6-(1-(5-Azaspiro[2.3]hexan-5-yl)ethyl)-4-cyclopropyl-2-(3-(3-((4-methyl-4H-1,2,4-triazol-3-yl)methyl)oxetan-3-yl)phenyl)-2,3-dihydro-1H-pyrrolo[3,4-c]pyridin-1-one]	≤ 100 nM	1.01 to 1.3	1.01 to 1.3	1.01 to 2.5	2.51 to 5	0.601 to 0.8	< 0.05	< 100 nM

Source: patent US20220324835A1 (Nurix Therapeutics, Inc., priority 2018, published 2022)
